Patent US12643887B2, “Heterocyclic derivatives with cardiomyocyte proliferation activity for treatment of heart diseases” (Tongji University, priority 2019, dated 2026)
Like-named read-outs stand apart in the source and are kept apart here.

What was measured:
[1] = tested on: Neonatal Rat Ventricular Myocytes (NRVMs); experiment: Myocyte proliferation assay (EdU assay) in neonatal rat ventricular myocytes; format: cell-based; details: growth relative to blank myocyte growth without compound added; for Avg 1 uM (average myocyte proliferation): compound 1 uM; for Avg 3 uM (average myocyte proliferation): compound 3 uM; for Avg 10 uM (average myocyte proliferation): compound 10 uM
Summary of the method: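 After 36 h compound exposure (1, 3 or 10 uM in 6% FBS/ITS DMEM, following 24 h low-serum culture), NRVMs were pulsed with EdU for 12 h. Proliferation scored by automated confocal imaging of EdU click chemistry, ab8295 immunostaining and DAPI nuclei in fixed cultures.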

human HIPK2 = molecular target: T1, human HIPK2 (Homo sapiens, UniProt Q9H2X6); experiment: HIPK2 enzyme assay (ADP-Glo); format: biochemical
T1 construct: Recombinant human HIPK2 (1-640); GST (N); purchased SignalChem H04-11BG; host or cells: Sf9 insect cells
Summary of the method: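 GST-tagged HIPK2 (1-640) from Sf9, 1 nM, preincubated 30 min at 25° C with inhibitor in 40 mM Tris pH 7.5, 20 mM MgCl2. Reaction ran 90 min at 25° C with GST-MBP substrate at 0.05 mg/ml and 5 μM ATP. ADP-Glo luminescence; IC50 by four-parameter logistic fit.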

[2] = ADP-Glo, ATP 5 μM, read-out: HIPK2 IC50

T1 sequence (Q9H2X6 1-640): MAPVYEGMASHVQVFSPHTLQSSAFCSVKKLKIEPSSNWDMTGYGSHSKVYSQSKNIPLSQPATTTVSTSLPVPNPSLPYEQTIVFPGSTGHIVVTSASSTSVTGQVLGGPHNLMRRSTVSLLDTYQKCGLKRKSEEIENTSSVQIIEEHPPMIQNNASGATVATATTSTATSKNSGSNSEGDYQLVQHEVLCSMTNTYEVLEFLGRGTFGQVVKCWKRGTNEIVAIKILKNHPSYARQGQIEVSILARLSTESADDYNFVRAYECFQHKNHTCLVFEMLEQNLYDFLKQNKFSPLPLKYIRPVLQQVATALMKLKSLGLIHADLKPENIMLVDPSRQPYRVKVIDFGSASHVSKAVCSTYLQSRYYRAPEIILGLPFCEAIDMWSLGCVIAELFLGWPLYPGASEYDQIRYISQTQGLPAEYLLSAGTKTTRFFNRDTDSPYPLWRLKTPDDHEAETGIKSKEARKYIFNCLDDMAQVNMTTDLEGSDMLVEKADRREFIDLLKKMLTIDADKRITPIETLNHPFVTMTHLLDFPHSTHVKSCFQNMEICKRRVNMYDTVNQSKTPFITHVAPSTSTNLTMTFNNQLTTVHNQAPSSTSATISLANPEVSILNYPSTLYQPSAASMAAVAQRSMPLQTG

SMILES	Avg 1 uM (average myocyte proliferation) [1]	Avg 3 uM (average myocyte proliferation) [1]	Avg 10 uM (average myocyte proliferation) [1]	IC50 (human HIPK2; [2]) [µM]	IC50 (human HIPK2) [µM]
CCN(C1=N/C(=C\c2ccc3c(c2)OCO3)C(=O)N1)c1ccccc1 [Example 4, (Z)-5-(benzo[d][1,3]dioxol-5-ylmethylene)-2-(ethyl(phenyl)amino)-3,5-dihydro-4H-imidazol-4-one]	** (10%-50%)	** (10%-50%)	** (10%-50%)	> 10	
CC(=O)N(C1=N/C(=C\c2ccc3c(c2)OCO3)C(=O)N1)c1ccccc1 [Example 5, (Z)—N-(4-(benzo[d][1,3]dioxol-5-ylmethylene)-5-oxo-4,5-dihydro-1H-imidazol-2-yl)-N-phenylacetamide]	** (10%-50%)	** (10%-50%)	*** (>50%)		1 to 10
CN(C1=N/C(=C\c2ccc3ncccc3c2)C(=O)N1)c1ccc2ncsc2c1 [Example 85, (Z)-2-(benzo[d]thiazol-6-yl(methyl)amino)-5-(quinolin-6-ylmethylene)-3,5-dihydro-4H-imidazol-4-one]	* (<10% growth relative to blank myocyte growth without compound added.)	** (10%-50%)		> 10	
CN(C1=N/C(=C\c2ccc3ncsc3c2)C(=O)N1)c1ccc2c(c1)ncn2C [Example 86, (Z)-5-(benzo[d]thiazol-6-ylmethylene)-2-(methyl(1-methyl-1H-benzo[d]imidazol-5-yl)amino)-3,5-dihydro-4H-imidazol-4-one]	** (10%-50%)	** (10%-50%)		1 to 10	
CN(C1=N/C(=C\c2ccc3[nH]ccc3c2)C(=O)N1)c1ccc2ncsc2c1 [Example 87, (Z)-5-((1H-indol-5-yl)methylene)-2-(benzo[d]thiazol-6-yl(methyl)amino)-3,5-dihydro-4H-imidazol-4-one]	** (10%-50%)	** (10%-50%)		> 10	
CN1C(=O)/C(=C/c2ccc3ncsc3c2)N=C1Nc1ccc2ncsc2c1 [Example 88, (Z)-2-(benzo[d]thiazol-6-ylamino)-5-(benzo[d]thiazol-6-ylmethylene)-3-methyl-3,5-dihydro-4H-imidazol-4-one]	* (<10% growth relative to blank myocyte growth without compound added.)	* (<10% growth relative to blank myocyte growth without compound added.)		> 10	
COCCN(C1=N/C(=C\c2ccc3ncsc3c2)C(=O)N1)c1ccc2ncsc2c1 [Example 89, (Z)-2-(benzo[d]thiazol-6-yl(2-methoxyethyl)amino)-5-(benzo[d]thiazol-6-ylmethylene)-3,5-dihydro-4H-imidazol-4-one]	** (10%-50%)	* (<10% growth relative to blank myocyte growth without compound added.)		0.1 to 1	
Cc1nc2ccc(NC3=N/C(=C\c4ccc5ncsc5c4)C(=O)N3)cc2s1 [Example 90, (Z)-5-(benzo[d]thiazol-6-ylmethylene)-2-((2-methylbenzo[d]thiazol-6-yl)amino)-3,5-dihydro-4H-imidazol-4-one]	** (10%-50%)	** (10%-50%)		< 0.1	
CC(=O)N(C1=N/C(=C\c2ccc3ncsc3c2)C(=O)N1)c1ccc2ncsc2c1 [Example 91, (Z)—N-(benzo[d]thiazol-6-yl)-N-(4-(benzo[d]thiazol-6-ylmethylene)-5-oxo-4,5-dihydro-1H-imidazol-2-yl)acetamide]	* (<10% growth relative to blank myocyte growth without compound added.)	* (<10% growth relative to blank myocyte growth without compound added.)		< 0.1	
O=C1NC(Nc2ccc3ncsc3c2)=N/C1=C\c1cncs1 [Example 92, (Z)-2-(benzo[d]thiazol-6-ylamino)-5-(thiazol-5-ylmethylene)-3,5-dihydro-4H-imidazol-4-one]	* (<10% growth relative to blank myocyte growth without compound added.)	* (<10% growth relative to blank myocyte growth without compound added.)		0.1 to 1	
Cn1cnc2ccc(NC3=N/C(=C\c4ccc5ncsc5c4)C(=O)N3)cc21 [Example 93, (Z)-5-(benzo[d]thiazol-6-ylmethylene)-2-((1-methyl-1H-benzo[d]imidazol-6-yl)amino)-3,5-dihydro-4H-imidazol-4-one]	* (<10% growth relative to blank myocyte growth without compound added.)	** (10%-50%)		0.1 to 1	
O=C1NC(Nc2ccc3ncsc3c2)=N/C1=C\c1ccc2nccnc2c1 [Example 94, (Z)-2-(benzo[d]thiazol-6-ylamino)-5-(quinoxalin-6-ylmethylene)-3,5-dihydro-4H-imidazol-4-one]	* (<10% growth relative to blank myocyte growth without compound added.)	* (<10% growth relative to blank myocyte growth without compound added.)		> 10	
O=C1NC(Nc2ccc3ncsc3c2)=N/C1=C\c1ccc2cn[nH]c2c1 [Example 95, (Z)-5-((1H-indazol-6-yl)methylene)-2-(benzo[d]thiazol-6-ylamino)-3,5-dihydro-4H-imidazol-4-one]	* (<10% growth relative to blank myocyte growth without compound added.)	* (<10% growth relative to blank myocyte growth without compound added.)		> 10	
O=C1NC(=S)N/C1=C\c1ccc2sccc2c1 [Example 96, (Z)-5-(benzo[b]thiophen-5-ylmethylene)-2-thioxoimidazolidin-4-one]	* (<10% growth relative to blank myocyte growth without compound added.)	* (<10% growth relative to blank myocyte growth without compound added.)		> 10	
O=C1NC(Nc2ccc3nc[nH]c3c2)=N/C1=C\c1ccc2ncsc2c1 [Example 97, (Z)-2-((1H-benzo[d]imidazol-6-yl)amino)-5-(benzo[d]thiazol-6-ylmethylene)-3,5-dihydro-4H-imidazol-4-one]	* (<10% growth relative to blank myocyte growth without compound added.)	* (<10% growth relative to blank myocyte growth without compound added.)		< 0.1	
Nc1ccc(NC2=N/C(=C\c3ccc4ncsc4c3)C(=O)N2)cc1 [Example 98, (Z)-2-((4-aminophenyl)amino)-5-(benzo[d]thiazol-6-ylmethylene)-3,5-dihydro-4H-imidazol-4-one]	** (10%-50%)	** (10%-50%)		0.1 to 1	
O=C1NC(N(Cc2ccccc2)c2ccc3ncsc3c2)=N/C1=C\c1ccc2ncsc2c1 [Example 99, (Z)-2-(benzo[d]thiazol-6-yl(benzyl)amino)-5-(benzo[d]thiazol-6-ylmethylene)-3,5-dihydro-4H-imidazol-4-one]	** (10%-50%)	* (<10% growth relative to blank myocyte growth without compound added.)		0.1 to 1	
CC(C)Nc1nc2ccc(NC3=N/C(=C\c4ccc5ncsc5c4)C(=O)N3)cc2s1 [Example 100, (Z)-5-(benzo[d]thiazol-6-ylmethylene)-2-((2-(isopropylamino)benzo[d]thiazol-6-yl)amino)-3,5-dihydro-4H-imidazol-4-one]	** (10%-50%)	** (10%-50%)		0.1 to 1	
O=C1NC(Nc2ccc3sccc3c2)=N/C1=C\c1ccc2ncsc2c1 [Example 101, (Z)-2-(benzo[b]thiophen-5-ylamino)-5-(benzo[d]thiazol-6-ylmethylene)-3,5-dihydro-4H-imidazol-4-one]	** (10%-50%)	* (<10% growth relative to blank myocyte growth without compound added.)		> 10	
